Laboratory results from patent publication US10927089B2, “Diaryl thioether piperazine compounds, preparation methods and uses thereof” (SUNSHINE LAKE PHARMA CO., LTD., priority 2016, dated 2021).

Assay: Pharmacokinetic evaluation after intramuscular injection to rats
Assay type: in vivo
Details: im, male rat, solution, 17.5 mg/kg, vortioxetine in plasma
Experimental: The LC/MS/MS system for analysis consists of the Agilent 1200 series vacuum degassing furnace, binary syringe pump, well plate autosampler, column incubator, and API4000 three-stage quadrupole mass spectrometer equipped with electro spray ionization (ESI) source.
Waters XBridge™ C18, 2.1×30 mm, 3.5 μM column was used for analysis, and 20 μL of sample was injected. Analytical conditions: the mobile phase was (2 mM ammonium formate+0.1% formic acid) (A) and (methanol+2 mM ammonium formate+0.1% formic acid) (B). The flow rate was 0.5 mL/min.
In addition, the API4000 Series LC/MS/MS spectrometer for analysis was equipped with a G1312A binary syringe pump, G1367A autosampler and MS/MS detector; ESI source was used in LC/MS/MS spectrometer. Each analyte was treated in a suitable cation model and optimally analyzed by MRM conversion with using standard solutions. Waters XBridge™ C18 was used during the analysis and the size was: 2.1×30 mm, 3.5 μM. The mobile phase was (2 mM ammonium formate+0.1% formic acid) (A) and (methanol+2 mM ammonium formate+0.1% formic acid) (B). The flow rate was 0.5 mL/min; the column temperature was maintained at 40° C.; 15 μL of sample was injected.
The present invention evaluates the pharmacokinetic study of a series of compounds of the invention in rats. The compound of the present invention was added into a mixture formed by dissolving and dispersing Tween-20 and/or Span-20 in water after being subjected to a pretreatment such as grinding, sieving, etc., and was uniformly dispersed and fixed to a constant volume; the suspension was grinded by a ball mill, then administered. The animals were given a vortioxetine solution (17.5 mg/kg) and a suspension of vortioxetine compound (75 mg/kg) by intramuscular injection. After administration, whole blood was collected at 0.25, 1, 2, 5, 7, 24, 48, 72, 96, 120, 148, and 196 h, and plasma was separated and frozen for testing. And the plasma was centrifuge at 12,000 for 2 minutes. Plasma samples were collected and stored at −20° C. or −70° C. until LC/MS/MS analysis. […] The average drug-time curve of some of the compounds of the present invention after intramuscular injection in rats is shown in FIG. 1.

AUC(0-t) (read-out: Exposure level AUClast): 1370 ng·h/mL | half-life (read-out: Half-life period T1/2 (converted)): 2.74 h | Cmax (read-out: Peak concentration Cmax): 530 ng/mL | Tmax (read-out: Time to peak Tmax): 0.25 h
SMILES: Cc1ccc(Sc2ccccc2N2CCNCC2)c(C)c1 [WTXT, Vortioxetine]
